Test results taken from ChEMBL document CHEMBL5107973, “Synthesis and structure-activity relationships of pirfenidone derivatives as anti-fibrosis agents in vitro” (RSC Med Chem, 2022).
Values belong to the compound of their own block, whether it stands above or below them.

Legend:
NIH3T3 [1] = experiment: Antiproliferative activity against TGFbeta-induced mouse NIH3T3 cells assessed as cell growth inhibition at 1 mM incubated for 48 hrs by CCK-8 assay; type: functional; details: NIH3T3, 48 h
NIH3T3 [2] = experiment: Antiproliferative activity against TGFbeta-induced mouse NIH3T3 cells assessed as cell growth inhibition incubated for 48 hrs by CCK-8 assay; type: functional, cell-based; details: NIH3T3, 48 h
[3] = MRT (0 to t) in rat at 2 mg/kg,iv by HPLC-UV analysis; type: ADME, organism-based; details: in vivo
NIH3T3 [4] = experiment: Anti-fibrogenic activity against mouse NIH3T3 cells assessed as inhibition of TGFbeta-induced migration rate at 0.1 to 0.4 mM incubated for 48 hrs by wound healing assay; type: functional, cell-based; details: dose 0.1-0.4 mM, DDE = dose-dependent effect
NIH3T3 [5] = experiment: Induction of apoptosis in TGFbeta-induced mouse NIH3T3 cells assessed as increase in apoptosis rate at 0.05 to 0.2 mM incubated for 48 hrs by Annexin V-FITC/PI staining based flow cytometry; type: functional, cell-based; details: dose 0.05-0.2 mM, DDE = dose-dependent effect
NIH3T3 [6] = experiment: Anti-fibrogenic activity against mouse NIH3T3 cells assessed as inhibition of TGFbeta-induced Fn protein expression at 0.01 to 0.2 mM incubated for 48 hrs by western blot assay; type: functional, cell-based; details: dose 0.01-0.2 mM, DDE = dose-dependent effect
[7] = AUC (0-t) in rat at 10 mg/kg,po by HPLC-UV analysis; type: ADME, organism-based; set-up: dose 10 mg/kg, route po; details: in vivo
[8] = Metabolic stability in human liver microsomes assessed as half life measured upto 45 mins in presence of NADPH by LC/MS analysis; type: ADME, Microsome
NIH3T3 [9] = experiment: Anti-fibrogenic activity against mouse NIH3T3 cells assessed as reduction in TGFbeta-induced Smad3 phosphorylation level at 0.01 to 0.2 mM incubated for 48 hrs by western blot assay; type: functional, cell-based; details: dose 0.01-0.2 mM, DDE = dose-dependent effect
[10] = AUC (0-infinity) in rat at 10 mg/kg,po by HPLC-UV analysis; type: ADME, organism-based; set-up: time infinity, dose 10 mg/kg, route po; details: in vivo
[11] = Metabolic stability in rat liver microsomes assessed as half life measured upto 45 mins in presence of NADPH by LC/MS analysis; type: ADME, Microsome
[12] = MRT (0 to t) in rat at 10 mg/kg,po by HPLC-UV analysis; type: ADME, organism-based; details: in vivo
[13] = AUC (0-infinity) in rat at 2 mg/kg,iv by HPLC-UV analysis; type: ADME, organism-based; set-up: time infinity, dose 2 mg/kg, route iv; details: in vivo
[14] = Cmax in rat at 2 mg/kg,iv by HPLC-UV analysis; type: ADME, organism-based; set-up: dose 2 mg/kg, route iv; details: in vivo
[15] = AUC (0-t) in rat at 2 mg/kg,iv by HPLC-UV analysis; type: ADME, organism-based; set-up: dose 2 mg/kg, route iv; details: in vivo
NIH3T3 [16] = experiment: Anti-fibrogenic activity against mouse NIH3T3 cells assessed as inhibition of TGFbeta-induced COL1 protein expression at 0.01 to 0.2 mM incubated for 48 hrs by western blot assay; type: functional, cell-based; details: dose 0.01-0.2 mM, DDE = dose-dependent effect
[17] = Tmax in rat at 10 mg/kg,po by HPLC-UV analysis; type: ADME, organism-based; details: in vivo
[18] = Metabolic stability in human liver microsomes assessed as intrinsic clearance measured upto 45 mins in presence of NADPH by LC/MS analysis; type: ADME, Microsome; details: read-out: CLH
[19] = Oral bioavailability in rat at 10 mg/kg by HPLC-UV analysis; type: ADME, organism-based; details: in vivo
[20] = Half life in rat at 2 mg/kg,iv by HPLC-UV analysis; type: ADME, organism-based; details: in vivo
NIH3T3 [21] = experiment: Induction of apoptosis in TGFbeta-induced mouse NIH3T3 cells assessed as increase in apoptosis rate at 0.05 mM incubated for 48 hrs by Annexin V-FITC/PI staining based flow cytometry; type: functional
[22] = Cmax in rat at 10 mg/kg,po by HPLC-UV analysis; type: ADME, organism-based; set-up: dose 10 mg/kg, route po; details: in vivo
NIH3T3 [23] = experiment: Anti-fibrogenic activity against mouse NIH3T3 cells assessed as inhibition of TGFbeta-induced alpha-SMA protein expression at 0.01 to 0.2 mM incubated for 48 hrs by western blot assay; type: functional, cell-based; details: dose 0.01-0.2 mM, DDE = dose-dependent effect
[24] = Tmax in rat at 2 mg/kg,iv by HPLC-UV analysis; type: ADME, organism-based; details: in vivo
[25] = Metabolic stability in rat liver microsomes assessed as intrinsic clearance measured upto 45 mins in presence of NADPH by LC/MS analysis; type: ADME, Microsome; details: read-out: CLH
[26] = Half life in rat at 10 mg/kg,po by HPLC-UV analysis; type: ADME, organism-based; details: in vivo
NIH3T3 [27] = experiment: Anti-fibrogenic activity against mouse NIH3T3 cells assessed as reduction in TGFbeta-induced Smad2 phosphorylation level at 0.01 to 0.2 mM incubated for 48 hrs by western blot assay; type: functional, cell-based; details: dose 0.01-0.2 mM, DDE = dose-dependent effect
NIH3T3 [28] = experiment: Anti-fibrogenic activity against mouse NIH3T3 cells assessed as inhibition of TGFbeta-induced alpha-SMA protein expression at 0.5 to 10 mM incubated for 48 hrs by western blot assay; type: functional, cell-based; details: dose 0.5-10 mM, DDE = dose-dependent effect
NIH3T3 [29] = experiment: Induction of apoptosis in TGFbeta-induced mouse NIH3T3 cells assessed as increase in apoptosis rate at 10 mM incubated for 48 hrs by Annexin V-FITC/PI staining based flow cytometry; type: functional
NIH3T3 [30] = experiment: Anti-fibrogenic activity against mouse NIH3T3 cells assessed as inhibition of TGFbeta-induced Fn protein expression at 0.5 to 10 mM incubated for 48 hrs by western blot assay; type: functional, cell-based; details: dose 0.5-10 mM, DDE = dose-dependent effect
NIH3T3 [31] = experiment: Anti-fibrogenic activity against mouse NIH3T3 cells assessed as inhibition of TGFbeta-induced COL1 protein expression at 0.5 to 10 mM incubated for 48 hrs by western blot assay; type: functional, cell-based; details: dose 0.5-10 mM, DDE = dose-dependent effect

SMILES: Cc1ccc(CC(=O)Nc2ccc(=O)n(-c3ccccc3)c2)c(C)c1
- inhibition at 1000 µM (NIH3T3 [1]): 68.9%
- IC50 (NIH3T3 [2]): 240 µM

SMILES: O=C(Cc1ccccc1F)Nc1ccc(=O)n(-c2ccccc2)c1
- inhibition at 1000 µM (NIH3T3 [1]): 28.7%

SMILES: O=C(Cc1cccc(Cl)c1)Nc1ccc(=O)n(-c2ccccc2)c1
- inhibition at 1000 µM (NIH3T3 [1]): 27.6%

SMILES: O=C(Cc1ccc(F)cc1)Nc1ccc(=O)n(-c2ccccc2)c1
- inhibition at 1000 µM (NIH3T3 [1]): 39%
- IC50 (NIH3T3 [2]): 1560 µM

SMILES: O=C(Cc1ccc(Cl)cc1)Nc1ccc(=O)n(-c2ccccc2)c1
- inhibition at 1000 µM (NIH3T3 [1]): 37.1%
- IC50 (NIH3T3 [2]): 1340 µM

SMILES: O=C(Cc1c(F)cc(F)cc1F)Nc1ccc(=O)n(-c2ccccc2)c1
- inhibition at 1000 µM (NIH3T3 [1]): 28.1%

SMILES: O=C(Cc1ccccc1Cl)Nc1ccc(=O)n(-c2ccccc2)c1
- inhibition at 1000 µM (NIH3T3 [1]): 35.2%
- IC50 (NIH3T3 [2]): 1980 µM

- MRT last [3]: 51.4 min
- AUC(0-t) [7]: 332 ng·h/mL
- half-life [8]: 27.2 min
- AUC [10]: 406.5 ng·h/mL
- half-life [11]: 22.5 min
- MRT last [12]: 290 min
- AUC [13]: 701.17 ng·h/mL
- Cmax [14]: 712 ng/mL
- AUC(0-t) [15]: 701 ng·h/mL
- Tmax [17]: 60.7 min
- CLint scaled [18]: 63.9 mL/min/kg
- F [19]: 51%
- half-life [20]: 41.6 min
- Cmax [22]: 68.5 ng/mL
- Tmax [24]: 4.98 min
- CLint scaled [25]: 110 mL/min/kg
- half-life [26]: 166 min
SMILES: Cc1cc(C)c(CC(=O)Nc2ccc(=O)n(-c3ccccc3)c2)c(C)c1
- Activity (NIH3T3 [4]): Dde
- Activity (NIH3T3 [5]): Dde
- Activity (NIH3T3 [6]): Dde
- Activity (NIH3T3 [9]): Dde
- inhibition at 1000 µM (NIH3T3 [1]): 74.4%
- Activity (NIH3T3 [16]): Dde
- IC50 (NIH3T3 [2]): 140 µM
- Activity (NIH3T3 [21]): 34.5%
- Activity (NIH3T3 [23]): Dde
- Activity (NIH3T3 [27]): Dde

SMILES: O=C(Nc1ccc(=O)n(-c2ccccc2)c1)c1ccccc1F
- inhibition at 1000 µM (NIH3T3 [1]): 3.5%

SMILES: O=C(Cc1ccc(Br)cc1)Nc1ccc(=O)n(-c2ccccc2)c1
- inhibition at 1000 µM (NIH3T3 [1]): 45.7%
- IC50 (NIH3T3 [2]): 1110 µM

SMILES: O=C(Cc1ccccc1Br)Nc1ccc(=O)n(-c2ccccc2)c1
- inhibition at 1000 µM (NIH3T3 [1]): 48.9%
- IC50 (NIH3T3 [2]): 1090 µM

SMILES: O=C(Cc1ccccc1C(F)(F)F)Nc1ccc(=O)n(-c2ccccc2)c1
- inhibition at 1000 µM (NIH3T3 [1]): 37.8%
- IC50 (NIH3T3 [2]): 1360 µM

SMILES: Cc1cccc(CC(=O)Nc2ccc(=O)n(-c3ccccc3)c2)c1
- inhibition at 1000 µM (NIH3T3 [1]): 19.8%

SMILES: O=C(Cc1cccc(Br)c1)Nc1ccc(=O)n(-c2ccccc2)c1
- inhibition at 1000 µM (NIH3T3 [1]): 2.1%

SMILES: O=C(CC1CCCCC1)Nc1ccc(=O)n(-c2ccccc2)c1
- inhibition at 1000 µM (NIH3T3 [1]): 4.5%

SMILES: O=C(Cc1cccc(F)c1)Nc1ccc(=O)n(-c2ccccc2)c1
- inhibition at 1000 µM (NIH3T3 [1]): 21.9%

SMILES: Cc1ccccc1CC(=O)Nc1ccc(=O)n(-c2ccccc2)c1
- inhibition at 1000 µM (NIH3T3 [1]): 56.1%
- IC50 (NIH3T3 [2]): 730 µM

- half-life [8]: 5.76 min
- half-life [11]: 1.46 min
- CLint scaled [18]: 1230 mL/min/kg
- CLint scaled [25]: 1730 mL/min/kg
SMILES: Cc1ccc(=O)n(-c2ccccc2)c1 [PIRFENIDONE]
- Activity (NIH3T3 [28]): Dde
- Activity (NIH3T3 [29]): 31.9%
- IC50 (NIH3T3 [2]): 13700 µM
- Activity (NIH3T3 [30]): Dde
- Activity (NIH3T3 [31]): Dde

SMILES: Cc1ccc(CC(=O)Nc2ccc(=O)n(-c3ccccc3)c2)cc1
- inhibition at 1000 µM (NIH3T3 [1]): 52.2%
- IC50 (NIH3T3 [2]): 950 µM
